# Test results from patent US20090318492A1, “INDOLE COMPOUNDS HAVING C4-ACIDIC SUBSTITUENTS AND USE THEREOF AS PHOSPHOLIPASE-A2 INHIBITORS” (priority 2005, published 2009).
# Where two headings read alike, the source gives them in different places.
# Assays:
# [1] = predicted to survive passage through the stomach; cited from earlier work
# mouse PLA2 IB enzyme = mouse PLA2 IB enzyme (Mus musculus, UniProt Q9Z0Y2); settings: versus the mouse PLA2 IB enzyme; Singer, Ghomashchi et al. 2002; cited from earlier work
# [2] = Example 6C pharmokinetic study of ILY-4001 (IV and oral); type: in vivo, mice; settings: 30 mg/kg oral
# Excerpt: This example characterized ILY-4001 [2-(3-(2-amino-2-oxoacetyl)-1-(biphenyl-2-ylmethyl)-2-methyl-1H-indol-4-yloxy)acetic acid], alternatively referred to herein as methyl indoxam, with respect to activity, as determined by IC50 assay (Example 6A), with respect to cell absorbtion, as determined by in-vitro Caco-2 assay (Example 6B) and with respect to bioavailability, as determined using in-vivo mice studies (Example 6C).
# This example evaluated the bioavailability of ILY-4001 [2-(3-(2-amino-2-oxoacetyl)-1-(biphenyl-2-ylmethyl)-2-methyl-1H-indol-4-yloxy)acetic acid], alternatively referred to herein as methyl indoxam. […]
# Bioavailability was calculated as a ratio of AUC-oral/AUC-intravenous (IV). To determine this ratio, a first set of subject animals were given a measured intravenous (IV) dose of ILY-4001, followed by a determination of ILY-4001 levels in the blood at various time points after administration (e.g., 5 minutes through 24 hours). Another second set of animals was similarly dosed using oral administration, with blood levels of ILY-4001 determined at various time points after administration (e.g., 30 minutes through 24 hours). The level of ILY-4001 in system to circulation were determined by generally accepted methods (for example as described in Evans, G., A Handbook of Bioanalysis and Drug Metabolism. Boca Raton, CRC Press (2004)). […]
# Caco-2 cells = experiment: Example 6B Caco-2 permeability study; type: in vitro ADME, human
# Protocol: The culture medium was refreshed every 48 hours.
# Papp=(dQ/dt)×(1/C0)×(1/A)
# [3] = tested on: C57BL/6 (wt) mice on high fat/high sucrose diabetogenic diet; experiment: Example 5 in-vivo evaluation in mice on high fat/high sucrose diabetogenic diet; design: species or system mouse; settings: for body weight gain compared to wild-type control group: week 4 and week 10; for plasma levels of cholesterol / plasma levels of triglycerides: 10 weeks
# Protocol: ILY-4001 (FIG. 2) was evaluated as a PLA2 IB inhibitor in a set of experiments using wild-type mice and genetically deficient PLA2 (−/−) mice (also referred to herein as PLA2 knock-out (KO) mice). In these experiments, wild-type and PLA2 (−/−) mice were maintained on a high fat/high sucrose diet, details of which are described below.
# Briefly, four groups were set up, each having six mice. Three of the groups included six wild-type PLA2 (+/+) mice in each group (eighteen mice total), and one of the groups included six genetically deficient PLA2 (−/−) mice. One of the wild-type groups was used as a wild-type control group, and was not treated with ILY-4001. The other two wild-type groups were treated with ILY-4001-one group at a lower dose (indicated as “L” in Table 1) of 25 mg/kg/day, and the other at a higher dose (indicated as “H” in Table 1) of 90 mg/kg/day. The group comprising the PLA2 (−/−) mice was used as a positive control group.
# The experimental protocol used in this study was as follows. The four groups of mice, including wild type and isogenic PLA2 (−/−) C57BL/J mice were acclimated for three days on a low fat/low carbohydrate diet. After the three day acclimation phase, the animals were fasted overnight and serum samples taken to establish baseline plasma cholesterol, triglyceride, and glucose levels, along with baseline body weight. The mice in each of the treatment groups were then fed a high fat/high sucrose diabetogenic diet (Research Diets D12331). 1000 g of the high fat/high sucrose D12331 diet was composed of casein (228 g), DL-methionine (2 g), maltodextrin 10 (170 g), sucrose (175 g), soybean oil (25 g), hydrogenated coconut oil (333.5 g), mineral mix S10001 (40 g), sodium bicarbonate (10.5 g), potassium citrate (4 g), vitamin mix V10001 (10 g), and choline bitartrate (2 g). This diet was supplemented with ILY-4001 treatments such that the average daily dose of the compound ingested by a 25 g mouse was: 0 mg/kg/day (wild-type control group and PLA2 (−/−) control group); 25 mg/kg/day (low-dose wild-type treatment group), or 90 mg/kg/day (high-dose wild-type treatment group). The animals were maintained on the high fat/high sucrose diet, with the designated ILY-4001 supplementation, for a period of ten weeks.
# Body weight measurements were taken for all animals in all treatment and control groups at the beginning of the treatment period and at 4 weeks and 10 weeks after initiation of the study. (See Example 5A). Blood draws were also taken at the beginning of the treatment period (baseline) and at 4 weeks and 10 weeks after initiation of the study, in order to determine fasting glucose (See Example 5B). Cholesterol and triglyceride levels were determined from blood draws taken at the beginning of the treatment (baseline) and at ten weeks. (See Example 5C).
# human PLA2 IB enzyme = human PLA2 IB enzyme (Homo sapiens, UniProt P04054); settings: versus the human PLA2 IB enzyme; Singer, Ghomashchi et al. 2002; cited from earlier work
# [4] = biological target: T1, mouse group 1B PLA2 (mps PLA2) (Mus musculus, UniProt Q9Z0Y2); experiment: Example 8 fluorimetric PLA2 inhibition assay (PPyrPM), mouse enzyme; type: biochemical
# T1 construct: made in house; host or cells: E. coli
# Excerpt: (§1) In this example, a fluorimetric assay procedure was used to evaluate the indole and indole-related compounds of the invention as inhibitors of group 1B phospholipase A2 (PLA2) from human, mouse and porcine. A description of this assay is found in articles: Leslie, C C and Gelb, M H (2004) Methods in Molecular Biology “Assaying phospholipase A2 activity”, 284:229-242; Singer, A G, et al. (2002) Journal of Biological Chemistry “Interfacial kinetic and binding properties of the complete set of human and mouse groups I, II, V, X, and XII secreted phospholipases A2”, 277:48535-48549, which are incorporated herein as references.
# (§2) In general, this assay used a phosphatidylmethanol substrate with a pyrene fluorophore on the terminal end of the sn-2 fatty acyl chain. Without being bound by theory, close proximity of the pyrenes from neighboring phospholipids in a phospholipid vesicle caused the spectral properties to change relative to that of monomeric pyrene. Bovine serum albumin was present in the aqueous phase and captured the pyrene fatty acid when it is liberated from the glycerol backbone owing to the PLA2-catalyzed reaction. However, a potent inhibitor can inhibit the liberation of pyrene fatty acid from the glycerol backbone. […] The effect of a given inhibitor and inhibitor concentration on human, mouse and porcine phospholipase was determined.
# Recombinant human and mouse group 1B PLA2 were cloned and expressed in E. coli as insoluble inclusion bodies. The inclusion bodies were isolated and purified by sonicating cell pellet in lysis buffer (50 mM Tris-HCl pH 7.0, 250 mM NaCl, 0.5% Triton 100), centrifugation at 12,000×g, and washing three times in washing buffer (20 mM Tris-HCl pH 7.0, 250 mM NaCl, 0.5% Triton 100). […]
# (§3) The following procedure was performed to evaluate the inhibitory potency of the evaluated compounds. • 1. […]
# [5] = biological target: T2, Porcine group 1B phospholipase A2 (pps PLA2) (Sus scrofa, UniProt P00592); experiment: Example 8 fluorimetric PLA2 inhibition assay (PPyrPM), porcine enzyme; type: biochemical; settings: read-out: ILYPSA IC50 pps PLA2
# T2 construct: purchased
# Excerpt: as §1
# In general, this assay used a phosphatidylmethanol substrate with a pyrene fluorophore on the terminal end of the sn-2 fatty acyl chain. […] The effect of a given inhibitor and inhibitor concentration on human, mouse and porcine phospholipase was determined. […]
# The following procedure was performed to evaluate the inhibitory potency of the evaluated compounds. • 1. […] The fluorescence was read using an excitation of 342 nm and an emission of 395 nm.
# Evaluated compounds were tested in duplicate and their values were averaged to plot the inhibition curve and calculate the IC50. […] The IC50 was calculated using the BioDataFit 1.02 (Four Parameter Model) software package. […]
# [6] = biological target: T3, human group 1B PLA2 (hps PLA2) (Homo sapiens, UniProt P04054); experiment: Example 8 fluorimetric PLA2 inhibition assay (PPyrPM), human enzyme; type: biochemical; settings: read-out: ILYPSA IC50 hps PLA2
# T3 construct: made in house; host or cells: E. coli
# Excerpt: as §1
# as §2, with “reaction.” for “reaction. However, a potent inhibitor can inhibit the liberation of pyrene fatty acid from the glycerol backbone.”, “determined. […]” for “determined.”
# as §3
# T1 sequence (Q9Z0Y2 23-146): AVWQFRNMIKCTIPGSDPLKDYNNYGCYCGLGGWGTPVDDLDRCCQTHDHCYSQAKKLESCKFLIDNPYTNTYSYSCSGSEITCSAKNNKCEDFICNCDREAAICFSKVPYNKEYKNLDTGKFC
# Chain of human PLA2 IB enzyme (P04054 23-148): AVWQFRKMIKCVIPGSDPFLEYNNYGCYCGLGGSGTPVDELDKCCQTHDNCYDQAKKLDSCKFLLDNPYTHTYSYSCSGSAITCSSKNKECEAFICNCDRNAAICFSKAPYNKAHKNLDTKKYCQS
# T3 sequence (P04054 23-148): as above
# Chain of mouse PLA2 IB enzyme (Q9Z0Y2 23-146): as the sequence (Q9Z0Y2 23-146) above
# T2 sequence (P00592 23-146): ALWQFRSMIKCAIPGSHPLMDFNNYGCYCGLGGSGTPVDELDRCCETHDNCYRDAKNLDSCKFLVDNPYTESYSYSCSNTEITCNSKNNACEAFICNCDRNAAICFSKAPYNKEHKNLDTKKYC
molecule,measurement,setting,value
"Cc1c(C(=O)C(N)=O)c2c(OCC(=O)O)cccc2n1Cc1ccccc1-c1ccccc1 [ILY-4001, 2-(3-(2-amino-2-oxoacetyl)-1-(biphenyl-2-ylmethyl)-2-methyl-1H-indol-4-yloxy)acetic acid]",stability at low pH,[1],stable at low pH
same,IC50,mouse PLA2 IB enzyme,~150 nM
same,level of non-absorption from the GI tract into systemic circulation,[2],~72%
same,absorbtion from the GI lumen,Caco-2 cells; based on Caco-2 assays and pharmokinetic studies,relatively low absorbtion
same,body weight gain compared to wild-type control group,[3]; 25 mg/kg/d in diet,significantly reduced body weight gains
same,body weight gain compared to wild-type control group,[3]; 90 mg/kg/d in diet,significantly reduced body weight gains
same,plasma levels of cholesterol,[3]; high dose (90 mg/kg/day),substantially reduced
same,plasma levels of triglycerides,[3]; high dose (90 mg/kg/day),substantially reduced
same,plasma levels of cholesterol,[3]; low dose (25 mg/kg/day),substantially reduced
same,plasma levels of triglycerides,[3]; low dose (25 mg/kg/day),substantially reduced
same,fasting glucose levels,"[3]; low dose (25 mg/kg/day), week four",moderately beneficial effect
same,fasting glucose levels,"[3]; low dose (25 mg/kg/day), week ten",beneficial effect was not observed
same,IC50,human PLA2 IB enzyme,~200 nM
"Cc1c(C(=O)C(N)=O)c2c(OC(C(=O)O)C(C)C)cccc2n1CCCCCCCCCCCCOc1ccccc1OCCCCCCCCCCCCn1c(C)c(C(=O)C(N)=O)c2c(OC(C(=O)O)C(C)C)cccc21 (stereo not drawn) [ILY-V-33, 2-{3-Aminooxalyl-1-[12-(2-{12-[3-aminooxalyl-4-(1-carboxy-2-methyl-propoxy)-2-methyl-indol-1-yl]-dodecyloxy}-phenoxy)-dodecyl]-2-methyl-1H-indol-4-yloxy}-3-methyl-butyric acid]",IC50,[4],300 nM
2-(3-Aminooxalyl-1-{12-[3-aminooxalyl-4-(1-carboxy-2-methyl-propoxy)-2-methyl-indol-1-yl]-dodecyl}-2-methyl-1H-indol-4-yloxy)-3-methyl-butyric acid [ILY-V-44],IC50,[5],50 nM
same,IC50,[6],280 nM
same,IC50,[4]; read-out: ILYPSA IC50 mps PLA2,480 nM
Lucifer Yellow,apparent permeability,"Caco-2 cells; 10 uM in apical wells, paracellular transport control",around 2.82×10^−7+/−0.37×10^−7 cm/s
